Key:
Assay in all cases: Greenhouse herbicidal activity assay, post-emergence
Type in all cases: in vivo
Cyperus iria = conditions: Post-emergence test, rate 150 g a.i./hm^2, grade by fresh weight inhibition rate; for pest or weed control at 150 g/ha: Cyperus iria, read-out: Control efficacy grade, Cyperus iria
In short: (§1)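 Letter grades (A: ≥80% to 100%; C: ≥40% to <60%; E: <20%) express fresh weight inhibition recorded 14-21 days post-spray. Weeds were treated on the leaves once they reached 3-6 leaves in chamber-grown pots, allowed to dry naturally, then kept in the chamber.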

Digitaria sanguinalis = conditions: Post-emergence test, rate 150 g a.i./hm^2, grade by fresh weight inhibition rate; for pest or weed control at 150 g/ha: Digitaria sanguinalis, read-out: Control efficacy grade, Digitaria sanguinalis
In short: as §1

Echinochloa crusgalli = conditions: Post-emergence test, rate 150 g a.i./hm^2, grade by fresh weight inhibition rate; for pest or weed control at 150 g/ha: Echinochloa crus-galli, read-out: Control efficacy grade, Echinochloa crusgalli
In short: as §1

Eclipta prostrata = conditions: Post-emergence test, rate 150 g a.i./hm^2, grade by fresh weight inhibition rate; for pest or weed control at 150 g/ha: Eclipta prostrata, read-out: Control efficacy grade, Eclipta prostrata
In short: as §1

Leptochloa chinensis = conditions: Post-emergence test, rate 150 g a.i./hm^2, grade by fresh weight inhibition rate; for pest or weed control at 150 g/ha: Dinebra chinensis, read-out: Control efficacy grade, Leptochloa chinensis
In short: as §1

| SMILES | Control efficacy grade, Cyperus iria (Cyperus iria) | Control efficacy grade, Digitaria sanguinalis (Digitaria sanguinalis) | Control efficacy grade, Echinochloa crusgalli (Echinochloa crusgalli) | Control efficacy grade, Eclipta prostrata (Eclipta prostrata) | Control efficacy grade, Leptochloa chinensis (Leptochloa chinensis) | pest or weed control at 150 g/ha (Cyperus iria) | pest or weed control at 150 g/ha (Digitaria sanguinalis) | pest or weed control at 150 g/ha (Echinochloa crusgalli) | pest or weed control at 150 g/ha (Eclipta prostrata) | pest or weed control at 150 g/ha (Leptochloa chinensis) |
| --- | --- | --- | --- | --- | --- | --- | --- | --- | --- | --- |
| CS(=O)(=O)c1ccc(C(=O)Nc2nnco2)c(Cl)c1SCC(F)(F)F [Compound 3-323] | A (Fresh weight inhibition rate≥80% to 100%) | A (Fresh weight inhibition rate≥80% to 100%) | A (Fresh weight inhibition rate≥80% to 100%) | A (Fresh weight inhibition rate≥80% to 100%) | A (Fresh weight inhibition rate≥80% to 100%) |  |  |  |  |  |
| CCC[S+]([O-])c1c(S(C)(=O)=O)ccc(C(=O)Nc2nnc(C(C)C)o2)c1Cl (stereo not drawn) [Compound 3-500, 2-chloro-N-(5-isopropyl-1,3,4-oxadiazol-2-yl)-4-(methylsulfonyl)-3-(propylsulfinyl)benzamide] |  |  |  |  |  | 80 to 100% | 80 to 100% | 80 to 100% | 80 to 100% | 80 to 100% |
| C=CC[S+]([O-])c1c(S(C)(=O)=O)ccc(C(=O)Nc2nnc(C3CC3)o2)c1Cl (racemic) [Compound 3-687] | A (Fresh weight inhibition rate≥80% to 100%) | A (Fresh weight inhibition rate≥80% to 100%) | B (Fresh weight inhibition rate≥260% to <80%) | A (Fresh weight inhibition rate≥80% to 100%) | A (Fresh weight inhibition rate≥80% to 100%) |  |  |  |  |  |
| Cn1nnnc1NC(=O)c1ccc(S(C)(=O)=O)c(SC2CC2)c1Cl [Compound 1-32] | A (Fresh weight inhibition rate≥80% to 100%) | A (Fresh weight inhibition rate≥80% to 100%) | A (Fresh weight inhibition rate≥80% to 100%) | A (Fresh weight inhibition rate≥80% to 100%) | A (Fresh weight inhibition rate≥80% to 100%) |  |  |  |  |  |
| CS(=O)(=O)c1ccc(C(=O)Nc2nnc(C3CC3)o2)c(Cl)c1SC1CC1 [Compound 3-651] | A (Fresh weight inhibition rate≥80% to 100%) | A (Fresh weight inhibition rate≥80% to 100%) | A (Fresh weight inhibition rate≥80% to 100%) | A (Fresh weight inhibition rate≥80% to 100%) | A (Fresh weight inhibition rate≥80% to 100%) |  |  |  |  |  |
| CCCC[S+]([O-])c1c(S(C)(=O)=O)ccc(C(=O)Nc2ncnn2C)c1Cl (racemic) [Compound 2-12] | A (Fresh weight inhibition rate≥80% to 100%) | A (Fresh weight inhibition rate≥80% to 100%) | A (Fresh weight inhibition rate≥80% to 100%) | A (Fresh weight inhibition rate≥80% to 100%) | A (Fresh weight inhibition rate≥80% to 100%) |  |  |  |  |  |
| CC(C)[S+]([O-])c1c(S(C)(=O)=O)ccc(C(=O)Nc2nnc(C3CC3)o2)c1Cl (racemic) [Compound 3-621, 2-chloro-N-(5-cyclopropyl-1,3,4-oxadiazol-2-yl)-3-(isopropylsulfinyl)-4-(methylsulfonyl)benzamide] |  |  |  |  |  | 80 to 100% | 80 to 100% | 80 to 100% | 80 to 100% | 80 to 100% |
| CCc1nnc(NC(=O)c2ccc(S(C)(=O)=O)c(SCC(F)(F)F)c2Cl)o1 [Compound 3-439] | A (Fresh weight inhibition rate≥80% to 100%) | A (Fresh weight inhibition rate≥80% to 100%) | A (Fresh weight inhibition rate≥80% to 100%) | A (Fresh weight inhibition rate≥80% to 100%) | A (Fresh weight inhibition rate≥80% to 100%) |  |  |  |  |  |
| Cn1nnnc1NC(=O)c1ccc(S(C)(=O)=O)c(S(=O)(=O)CC(F)(F)F)c1Cl [Compound 1-56] | A (Fresh weight inhibition rate≥80% to 100%) | A (Fresh weight inhibition rate≥80% to 100%) | A (Fresh weight inhibition rate≥80% to 100%) | A (Fresh weight inhibition rate≥80% to 100%) | A (Fresh weight inhibition rate≥80% to 100%) |  |  |  |  |  |
| CCCC[S+]([O-])c1c(S(C)(=O)=O)ccc(C(=O)Nc2nnco2)c1Cl (racemic) [Compound 3-278] | A (Fresh weight inhibition rate≥80% to 100%) | A (Fresh weight inhibition rate≥80% to 100%) | A (Fresh weight inhibition rate≥80% to 100%) | A (Fresh weight inhibition rate≥80% to 100%) | A (Fresh weight inhibition rate≥80% to 100%) |  |  |  |  |  |
| Cn1ncnc1NC(=O)c1ccc(S(C)(=O)=O)c([S+]([O-])C2CCC2)c1Cl (racemic) [Compound 2-38] | A (Fresh weight inhibition rate≥80% to 100%) | A (Fresh weight inhibition rate≥80% to 100%) | A (Fresh weight inhibition rate≥80% to 100%) | A (Fresh weight inhibition rate≥80% to 100%) | A (Fresh weight inhibition rate≥80% to 100%) |  |  |  |  |  |
| CCC(C)Sc1c(S(C)(=O)=O)ccc(C(=O)Nc2nnco2)c1Cl (racemic) [Compound 3-282] | A (Fresh weight inhibition rate≥80% to 100%) | B (Fresh weight inhibition rate≥260% to <80%) | A (Fresh weight inhibition rate≥80% to 100%) | A (Fresh weight inhibition rate≥80% to 100%) | A (Fresh weight inhibition rate≥80% to 100%) |  |  |  |  |  |
| CC(C)[S+]([O-])c1c(S(C)(=O)=O)ccc(C(=O)Nc2nnc(C3CC3)o2)c1Cl (single isomer, unassigned) [Compound 3-622] | A (Fresh weight inhibition rate≥80% to 100%) | A (Fresh weight inhibition rate≥80% to 100%) | A (Fresh weight inhibition rate≥80% to 100%) | A (Fresh weight inhibition rate≥80% to 100%) | A (Fresh weight inhibition rate≥80% to 100%) |  |  |  |  |  |
| Cn1ncnc1NC(=O)c1ccc(S(C)(=O)=O)c([S+]([O-])C2CCCC2)c1Cl (racemic) [Compound 2-43] | A (Fresh weight inhibition rate≥80% to 100%) | A (Fresh weight inhibition rate≥80% to 100%) | A (Fresh weight inhibition rate≥80% to 100%) | A (Fresh weight inhibition rate≥80% to 100%) | A (Fresh weight inhibition rate≥80% to 100%) |  |  |  |  |  |
| CC(C)CSc1c(S(C)(=O)=O)ccc(C(=O)Nc2nnco2)c1Cl [Compound 3-293] | A (Fresh weight inhibition rate≥80% to 100%) | A (Fresh weight inhibition rate≥80% to 100%) | A (Fresh weight inhibition rate≥80% to 100%) | A (Fresh weight inhibition rate≥80% to 100%) | A (Fresh weight inhibition rate≥80% to 100%) |  |  |  |  |  |

Source: patent publication US20250223268A1, “4-Methylsulfonylbenzamide Compound, Preparation Method, Herbicidal Composition And Use” (Jiangsu Flag Chemical Industry Co., Ltd., priority 2022, published 2025)
